Results published in US20110081662A1, “SCREENING METHODS FOR BONE MORPHOGENETIC MIMETICS” (THRASOS THERAPEUTICS, INC., priority 2000, published 2011).
One block for each molecule: values may come before it. Bridges are numbered along the chain shown (N, C = ends). Where no end group is shown, it is not given here.

How the values were obtained:
ECD of daf-4 receptor = molecular target: T1, ECD of daf-4 receptor (Caenorhabditis elegans, UniProt P50488); assay: Type II receptor-based HTS rapid solid-phase assay; assay type: binding, C. elegans; conditions: ECD immobilized on PVDF membrane, 18 h, room temperature
T1 construct: 1 includes additional portions on the N and C terminus; made in house; host or cells: transfected DHFR(-) CHO cell line PJ511.9.8, purified from conditioned medium
T1 sequence (P50488 with tags, fused parts or gaps): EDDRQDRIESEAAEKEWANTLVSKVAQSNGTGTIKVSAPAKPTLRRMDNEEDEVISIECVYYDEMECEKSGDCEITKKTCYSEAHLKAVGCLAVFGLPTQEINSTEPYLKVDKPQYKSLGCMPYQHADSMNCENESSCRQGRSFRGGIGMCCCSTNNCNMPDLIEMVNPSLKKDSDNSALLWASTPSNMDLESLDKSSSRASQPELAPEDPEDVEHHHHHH
Description: Preparation of type II Receptor ECD: Highly purified extracellular domain (ECD) of the type II receptor daf-4 was used in this assay. The ECD of the daf-4 receptor was cloned and vectors (pCMV5 expression vectors, daf-4 sequence including the mammalian consensus start site and the hexa-histidine sequence tag) are constructed for the expression of this molecule in mammalian cells. In this construct, the ECD has been linked to a hexa-Histadine sequence tag for subsequent purification and detection. The transfected DHFR(−) CHO cell line PJ511.9.8 has been used for the daf-4 expression as outlined below. This cloning method can also be utilized with other bone morphogenetic proteins.
Purification of daf-4 ECD: A purification protocol to process large volumes of conditioned media (3.5 L/week) was developed. The procedure involves initial isolation of daf-4 ECD by using Talon (Pharmacia Tech.) Immobilized metal affinity column. As daf-4 ECD protein is linked to a hexa-His sequence, the protein is bound to the metal affinity column and is subsequently eluted by imidazoic ([…]) containing buffer. […] The purified preparation was analyzed by reversed phase HPLC. […]
HTS assay procedure: BMP-7 binding activity was determined by a rapid solid-phase assay using ^125I-labeled BMP-7 as ligand and highly purified ECD of daf-4 as type II receptor. […]

[1] = tested on: BMP-7 induced and basal alkaline phosphatase activity in ROS cells (rat Osteosarcoma 17/2.8); assay: ROS cell based alkaline phosphatase assay
Experimental: ROS Cell Based Alkaline Phosphatase Assays: BMP-7 and test agents that bind BMP-7 receptors were analyzed by in vitro bioassay. This assay defines the role of these test agents at the receptor-binding site. It is believed that some of the test agents can effectively interact with receptors and inhibit BMP-7 induced target cell responsiveness, thereby acting as functional antagonists. Alternatively, these agents may mimic BMP-7 functions inducing alkaline phosphatase activity in ROS cells, thus acting as functional agonists. An assay procedure as described by Maliakal, J. C., et al., Growth Factors 11, 227-234, (1994) determined the biological activities of BMP-7 peptides. In a typical experiment, rat Osteosarcoma (17/2.8) cells were plated in 96 well plates (3.0×10^4 cells/well) and incubated overnight at 37 C in 5-6% CO2 incubator. Next day, the plates were examined to make sure that cells are healthy & confluent. Cells were treated with increasing concentrations of BMP-7 standard (1-10,000 ng/ml) or test agents (0.02-200 μM) or appropriate concentrations of test agent alone or with BMP-7 standard prepared in medium containing 1% FBS and incubated for 2 days at 37 C in 5-6% CO2 incubator. The cellular content of alkaline phosphatase activity was determined by the method of Reddi, A. H. & Huggins, C. B. Proc. Natl. Acad. Sci. USA 69, 1601-1605 (1972). Enzyme estimations were routinely carried out in 96 well plates. Following removal of culture medium, cells were washed with pre-warmed PBS (150 μl) and further incubated in 100 μl of pre-warmed 1% Triton X-100 for 30 minutes at 37 C. Plates were centrifuged for 10 minutes at full speed, and recovered samples (each 15 μl) were assayed for enzyme activity by adding 90 μl p-nitrophenyl phosphate (Sigma, St. Louis, Mo.) as a substrate in 0.05 M glycine-NaOH buffer, pH 9.3 and incubating for 20 minutes at 37 C. The reaction was stopped by adding 75 ul of 0.2 N NaOH/well and absorbance at 405/490 nm is measured on a Dynatech MR 700 plate reader (Dynatech Laboratories, U.K.). Results are expressed as concentration of peptide/small molecule inhibitor (with antagonist activity) required to give 50% inhibition of maximum response to BMP-7 standard. The activities of test agents that stimulate cell responsiveness (with agonist activity), are expressed relative to BMP-7 standard.

daf-4 ECD = molecular target: T2, daf-4 ECD (Caenorhabditis elegans, UniProt P50488); assay: BMP binding to purified daf-4 ECD (ligand blot, Scatchard analysis); parameters: species or system C. elegans
T2 construct: 1 includes additional portions on the N and C terminus; made in house; host or cells: transfected DHFR(-) CHO cell line PJ511.9.8, purified from conditioned medium
T2 sequence (P50488 with tags, fused parts or gaps): T1 sequence (P50488 with tags, fused parts or gaps)
Description: A novel ligand-blot technique was developed to evaluate the binding of BMP-7 to the purified daf-4 ECD.

bone formation = assay: Subcutaneous implantation assay in rodents (bone formation); assay type: in vivo; conditions: rat, subcutaneous implant, day 14, data not shown
Experimental: Subcutaneous implantation assay in rodents: This assay is based on the ability of BMP-7 to induce bone formation in the rat. […] Briefly, 1.2 mg of bovine bone matrix (collagen carrier) was added to BMP-7 or test peptide or small molecule or BMP-7 and test peptide in 200 μl of 50% acetonitrile, […]. A minimum of 6 animals per group were used. The day of implantation is designated as day 0 of the assay. Implants were removed on day 14 for evaluation. Bone-forming activity in the implants was monitored by the calcium content essentially as described by Reddi, A. H. & Huggins, C. B. (1972) PNAS USA 69, 1601-1605. For histology, implants were fixed in Bouin's solution, embedded in JB4 plastic medium, cut into 1 um sections, and stained by toluidine blue. […] (Data not shown)

- inhibition of 125I-labeled BMP-7 binding to the ECD of daf-4 receptor (ECD of daf-4 receptor): 75%
Molecule: CYFDDSSNVICKKYRS, SEQ I.D NO. 9; 11 residue loop with 5 residue C-terminal extension (disulfide 1-11; listed as Homo sapiens) [Peptide F2-3]
- percent increase in BMP-7 response (relative to the absence of peptide) ([1]; peptide 0.01 μM, sub-maximal BMP-7, P<0.001): 53%
- percent increase in BMP-7 response (relative to the absence of peptide) ([1]; peptide 0.1 μM, sub-maximal BMP-7, P=0.007): 54%
- percent increase in BMP-7 response (relative to the absence of peptide) ([1]; peptide 1 μM, sub-maximal BMP-7, P=0.01): 48%
- effect on basal cell responsiveness (basal alkaline phosphatase activity) ([1]; peptide alone): no significant effect
- behaviour of peptide on BMP-7 induced cell responsiveness ([1]; peptide together with BMP-7): agonistic

- binding to extracellular domain of daf-4 (daf-4 ECD): readily binds
- inhibition of 125I-labeled BMP-7 binding to the ECD of daf-4 receptor (ECD of daf-4 receptor): 78%
B1: BMP-7: homodimeric glycoprotein of the TGF-β superfamily; unlabeled standard (protein)
chain: STGSKQRSQNRSKTPKNQEALRMANVAENSSSDQRQACKKHELYVSFRDLGWQDWIIAPEGYAAYYCEGECAFPLNSYMNATNHAIVQTLVHFINPETVPKPCCAPTQLNAISVLYFDDSSNVILKKYRNMVVRACGCH
- bone formation in implants (bone formation): induced bone formation
